For this test, the target named is T1, His-tagged human recombinant DDR-2 kinase domain (His-TEV-DDR2 467-855 aa) (Homo sapiens, UniProt Q16832).
T1 construct: His-TEV-DDR2 467-855 aa
T1 sequence (Q16832 467-855): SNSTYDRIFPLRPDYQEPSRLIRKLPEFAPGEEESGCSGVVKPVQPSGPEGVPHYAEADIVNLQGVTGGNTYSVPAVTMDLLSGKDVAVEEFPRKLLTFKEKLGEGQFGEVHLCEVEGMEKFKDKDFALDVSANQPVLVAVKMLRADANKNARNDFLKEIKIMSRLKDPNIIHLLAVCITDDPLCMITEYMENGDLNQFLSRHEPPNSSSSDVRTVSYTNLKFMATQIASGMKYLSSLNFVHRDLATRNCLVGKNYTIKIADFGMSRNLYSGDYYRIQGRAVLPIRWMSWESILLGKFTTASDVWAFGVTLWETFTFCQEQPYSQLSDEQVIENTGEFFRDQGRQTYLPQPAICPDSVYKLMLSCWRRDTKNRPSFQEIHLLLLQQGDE
The test is described as follows: Autophosphorylation assay for biochemical activity testing of DDR2 (HTRF). As to conditions: biochemical DDR2 autophosphorylation. The gist of the method: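 Phospho-tyrosine was detected by HTRF between XL665 anti-6His and cryptate anti-phosphotyrosine PT66 antibodies, using the emission ratio. Inhibition was referenced to the inhibitor-free reaction.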

As a reminder, the IC50 is the point on the concentration scale where inhibition reaches its midpoint.

Turning to `CNC(=O)c1cc(Oc2ccc(CNC(=O)Nc3cc(C)c(Cl)cc3OCCN3CCOCC3)c(C)c2)ccn1` [compound 133, 4-(4-{3-[4-Chloro-5-methyl-2-(2-morpholin-4-yl-ethoxy)-phenyl]-ureidomethyl}-3-methyl-phenoxy)-pyridine-2-carboxylic acid methylamide], the IC50 was 2000 nM.
For `CNC(=O)c1cc(Oc2ccc(CNC(=O)Nc3cc(C)c(Cl)cc3OCCN3CCCC3)c(C)c2)ccn1` [compound 134, 4-(4-{3-[4-Chloro-5-methyl-2-(2-pyrrolidin-1-yl-ethoxy)-phenyl]-ureidomethyl}-3-methyl-phenoxy)-pyridine-2-carboxylic acid methylamide], the IC50 amounted to 1200 nM.
Under `CCN(CC)CCOc1cc(Cl)c(C)cc1NC(=O)NCc1ccc(Oc2ccnc(C(=O)NC)c2)c(C)c1` [compound 136, 4-(4-{3-[4-Chloro-2-(2-diethylamino-ethoxy)-5-methyl-phenyl]-ureidomethyl}-2-methyl-phenoxy)-pyridine-2-carboxylic acid methylamide] stands 390 nM; under `CNC(=O)c1cc(Oc2ccc(CNC(=O)Nc3cc(C)c(Cl)cc3OCCN3CCCC3)cc2C)ccn1` [compound 137, 4-(4-{3-[4-Chloro-5-methyl-2-(2-pyrrolidin-1-yl-ethoxy)-phenyl]-ureidomethyl}-2-methyl-phenoxy)-pyridine-2-carboxylic acid methylamide], 140 nM; under `CNC(=O)c1cc(Oc2ccc(CNC(=O)Nc3cc(C)c(Cl)cc3OCCN3CCOCC3)cc2C)ccn1` [compound 138, 4-(4-{3-[4-Chloro-5-methyl-2-(2-morpholin-4-yl-ethoxy)-phenyl]-ureidomethyl}-2-methyl-phenoxy)-pyridine-2-carboxylic acid methylamide], 310 nM.
Consider `CNC(=O)c1cc(Oc2ccc(CNC(=O)Nc3cc(C(F)(F)F)c(Cl)cc3OCCN)cc2)ccn1` [compound 140, 4-(4-{3-[2-(2-Amino-ethoxy)-4-chloro-5-trifluoromethyl-phenyl]-ureidomethyl}-phenoxy)-pyridine-2-carboxylic acid methylamide], for which the IC50 was found to be 121 nM.
As for `CNCCOc1cc(Cl)c(C(F)(F)F)cc1NC(=O)NCc1ccc(Oc2ccnc(C(=O)NC)c2)c(C)c1` [compound 147, 4-(4-{3-[4-Chloro-2-(2-methylamino-ethoxy)-5-trifluoromethyl-phenyl]-ureidomethyl}-2-methyl-phenoxy)-pyridine-2-carboxylic acid methylamide], the figure is 41 nM; as for `CNC(=O)c1cc(Oc2ccc(CNC(=O)Nc3cc(Cl)c(C)cc3OC)cc2C)ccn1` [compound 151, 4-{4-[3-(5-Chloro-2-methoxy-4-methyl-phenyl)-ureidomethyl]-2-methyl-phenoxy}-pyridine-2-carboxylic acid methylamide], 100 nM.
For the molecule `CNC(=O)c1cc(Oc2ccc(CNC(=O)Nc3cc(C(F)(F)F)c(Cl)cc3OCCN(C)C)cc2C)ccn1` [compound 152, 4-(4-{3-[4-Chloro-2-(2-dimethylamino-ethoxy)-5-trifluoromethyl-phenyl]-ureidomethyl}-2-methyl-phenoxy)-pyridine-2-carboxylic acid methylamide], the IC50 worked out at 25 nM.
Under `CNC(=O)c1cc(Oc2ccc(CNC(=O)Nc3cc(C)ccc3OC3CCNCC3)cc2)ccn1` [compound 159, 4-(4-{3-[5-Methyl-2-(piperidin-4-yloxy)-phenyl]-ureidomethyl}-phenoxy)-pyridine-2-carboxylic acid methylamide] stands 83 nM; under `CNC(=O)c1cc(Oc2ccc(CNC(=O)Nc3cc(C)c(Cl)cc3OCCCCN(C)C)cc2)ccn1` [compound 161, 4-(4-{3-[4-Chloro-2-(4-dimethylamino-butoxy)-5-methyl-phenyl]-ureidomethyl}-phenoxy)-pyridine-2-carboxylic acid methylamide], 160 nM.
As for `CNC(=O)c1cc(Oc2ccc(CNC(=O)Nc3cc(C)c(Cl)cc3OCCCCN(C)C)cc2C)ccn1` [compound 165, 4-(4-{3-[4-Chloro-2-(4-dimethylamino-butoxy)-5-methyl-phenyl]-ureidomethyl}-2-methyl-phenoxy)-pyridine-2-carboxylic acid methylamide], the figure is 210 nM; as for `CNC(=O)c1cc(Oc2ccc(CNC(=O)Nc3cc(C(F)(F)F)ccc3OCCOC)cc2)ccn1` [compound 166, 4-(4-{3-[2-(2-Methoxy-ethoxy)-5-trifluoromethyl-phenyl]-ureidomethyl}-phenoxy)-pyridine-2-carboxylic acid methylamide], 140 nM.
As for `CNC(=O)c1cc(Oc2ccc(CNC(=O)Nc3cc(C(F)(F)F)ccc3OCCOC)cc2C)ccn1` [compound 168, 4-(4-{3-[2-(2-Methoxy-ethoxy)-5-trifluoromethyl-phenyl]-ureidomethyl}-2-methyl-phenoxy)-pyridine-2-carboxylic acid methylamide], the figure is 130 nM.
Turning to `CNC(=O)c1cc(Oc2ccc(CNC(=O)Nc3cc(C)ccc3OC3CCNCC3)cc2C)ccn1` [compound 171, 4-(2-Methyl-4-{3-[5-methyl-2-(piperidin-4-yloxy)-phenyl]-ureidomethyl}-phenoxy)-pyridine-2-carboxylic acid methylamide], the IC50 was 47 nM.
Under `CNC(=O)c1cc(Oc2ccc(CNC(=O)Nc3cc(Cl)c(C)cc3OCCN3CCCC3)cc2)ccn1` [compound 173, 4-(4-{3-[5-Chloro-4-methyl-2-(2-pyrrolidin-1-yl-ethoxy)-phenyl]-ureidomethyl}-phenoxy)-pyridine-2-carboxylic acid methylamide] stands 260 nM; under `CNC(=O)c1cc(Oc2ccc(CNC(=O)Nc3cc(Cl)c(C)cc3OCCN)cc2)ccn1` [compound 176, 4-(4-{3-[2-(2-Amino-ethoxy)-5-chloro-4-methyl-phenyl]-ureidomethyl}-phenoxy)-pyridine-2-carboxylic acid methylamide], 27 nM.
As for `CNC(=O)c1cc(Oc2ccc(CNC(=O)Nc3cc(C(F)(F)F)ccc3OCCNS(C)(=O)=O)cc2)ccn1` [compound 180, 4-(4-{3-[2-(2-Methanesulfonylamino-ethoxy)-5-trifluoromethyl-phenyl]-ureidomethyl}-phenoxy)-pyridine-2-carboxylic acid methylamide], the figure is 32 nM; as for `CNC(=O)c1cc(Oc2ccc(CNC(=O)Nc3ccccc3)cc2)ccn1` [compound 181, 4-{4-[(3-Phenyl-ureido)-methyl]-phenoxy}-pyridine-2-carboxylic acid methylamide], 4900 nM; as for `CNC(=O)c1cc(Oc2ccc(CNC(=O)Nc3cc(C)c(Cl)cc3OCCNC(=O)C(F)(F)F)cc2)ccn1` [compound 187, 4-[4-(3-{4-Chloro-5-methyl-2-[2-(2,2,2-trifluoro-acetylamino)-ethoxy]-phenyl}-ureidomethyl)-phenoxy]-pyridine-2-carboxylic acid methylamide], 660 nM.
Under `CNC(=O)c1cc(Oc2ccc(CNC(=O)Nc3cc(C)c(Cl)cc3OCCNS(C)(=O)=O)cc2)ccn1` [compound 193, 4-(4-{3-[4-Chloro-2-(2-methanesulfonylamino-ethoxy)-5-methyl-phenyl]-ureidomethyl}-phenoxy)-pyridine-2-carboxylic acid methylamide] stands 180 nM; under `CNC(=O)c1cc(Oc2ccc(CNC(=O)Nc3cc(C(F)(F)F)c(Cl)cc3OCCNS(C)(=O)=O)cc2)ccn1` [compound 194, 4-(4-{3-[4-Chloro-2-(2-methanesulfonylamino-ethoxy)-5-trifluoromethyl-phenyl]-ureidomethyl}-phenoxy)-pyridine-2-carboxylic acid methylamide], 64 nM.
Regarding `CNC(=O)c1cc(Oc2ccc(CNC(=O)Nc3cc(C(F)(F)F)ccc3OCCO)cc2)ccn1` [compound 197, 4-(4-{3-[2-(2-Hydroxy-ethoxy)-5-trifluoromethyl-phenyl]-ureidomethyl}-phenoxy)-pyridine-2-carboxylic acid methylamide], the IC50 came to 96 nM.
Under `CNC(=O)c1cc(Oc2ccc(CNC(=O)Nc3cc(C(F)(F)F)ccc3OC(C)(C)C(N)=O)cc2)ccn1` [compound 199, 4-(4-{3-[2-(1 -Carbamoyl-1-methyl-ethoxy)-5-trifluoromethyl-phenyl]-ureidomethyl}-phenoxy)-pyridine-2-carboxylic acid methylamide] stands ≥ 100000 nM.
Under `CNC(=O)c1cc(Oc2ccc(CNC(=O)Nc3cc(Cl)c(C)cc3OC)cc2F)ccn1` [compound 216, 4-{4-[3-(5-Chloro-2-methoxy-4-methyl-phenyl)-ureidomethyl]-2-fluoro-phenoxy}-pyridine-2-carboxylic acid methylamide] stands 43 nM; under `CNC(=O)c1cc(Oc2ccc(CNC(=O)Nc3cc(C(F)(F)F)ccc3OC)cc2F)ccn1` [compound 217, 4-{2-Fluoro-4-[3-(2-methoxy-5-trifluoromethyl-phenyl)-ureidomethyl]-phenoxy}-pyridine-2-carboxylic acid methylamide], 21 nM.
For the molecule `CNC(=O)c1cc(Oc2ccc(CNC(=O)Nc3cc(C)c(Cl)cc3OC)cc2F)ccn1` [compound 218, 4-{4-[3-(4-Chloro-2-methoxy-5-methyl-phenyl)-ureidomethyl]-2-fluoro-phenoxy}-pyridine-2-carboxylic acid methylamide], the IC50 is 150 nM.

These data come from patent US20150225369A1, “DDR2 INHIBITORS FOR THE TREATMENT OF OSTEOARTHRITIS” (Merck Patent GmbH, priority 2012, published 2015).
